Here are results for four compounds from patent US5004758A, “Water soluble camptothecin analogs useful for inhibiting the growth of animal tumor cells” (priority 1988, dated 1991).

For assay [1], the system named is P388/Mitoxantrone. Description: ip P388/Mitoxantrone multidrug resistant subline in mice. To be noted: P388/Mitoxantrone, ip, Days 1 and 5.
Description: (§1) Increase in lifespan (ILS) is based on median survival time of groups of 6 mice. Net tumor cell kill (NCK) is calculated from median survival time by standard methods, since survival time is a linear function of the log tumor cell burden.
(§2) For the leukemias, these tumors are maintained in DBA/2 mice. […] The leukemias and the M5076 sarcoma are serially transplanted i.p. as ascites cell suspensions while the B16 melanoma lines and the colon carcinoma 26 are serially transplanted as s.c. solid tumors.
(§3) For therapeutic trials, tumors are aseptically removed from donor mice and prepared as suspensions for implantation ip into test animals. […] The test animals for the other tumor models are syngeneic female F1 hybrid B6D2F1 mice (C57B1/6 x DBA/2). The inoculum level varies with the type of tumor: P388 leukemia is inoculated at 10^6 cells per mouse, L1210 leukemia at 10^5 or 10^6 cells per mouse, M5076 sarcoma at 5×10^6 cells per mouse. […] After tumor inoculation, mice randomized to treatment groups comprised of 6-8 mice each. In each experiment, there are three groups of untreated control mice. Drugs are dissolved or suspended in appropriate aqueous vehicles and given by a variety of routes and schedules of administration over a range of dose levels. Animals are housed in shoebox cages and are monitored daily for mortality for 30 (L1210), 45 (P388) or 60 (B16, M5076, colon 26) days.
Assay [2] concerns P388/Doxorubicin. Description: ip P388/Doxorubicin multidrug resistant subline in mice. To be noted: for ILS / NCK (net tumor cell kill): P388/Doxorubicin, ip, Days 1 and 5.
Description: as §1, §2, §3
In assay [3] the test system is ip P388 leukemia. The conditions noted are these: ip.
Description: as §1
Animals were implanted ip with 10^6 cells. Increase in lifespan (ILS) is based on median survival time of groups of 6 mice relative to untreated controls. Long-term survivors were tumor-free on Day 45.
Tumors used in these studies--P388 leukemia and its doxorbicin--and mitoxanrone-resistant sublines, L1210 leukemia, B16 melanoma, B16 melanoma/F10 subline, M5076 sarcoma and colon carcinoma 26--are maintained by serial transplantation in syngeneic strains of mice. For the leukemias, these tumors are maintained in DBA/2 mice. The M5076 sarcoma, the B16 melanoma and its F10 subline are maintained in C57B1/6 mice and the colon sarcinoma 26 is maintained in BALB/c mice. The leukemias and the M5076 sarcoma are serially transplanted i.p. as ascites cell suspensions while the B16 melanoma lines and the colon carcinoma 26 are serially transplanted as s.c. solid tumors.
For therapeutic trials, tumors are aseptically removed from donor mice and prepared as suspensions for implantation ip into test animals. The test animals for the colon carcinoma 26 are female BALB/c mice (20-25 gm). The test animals for the other tumor models are syngeneic female F1 hybrid B6D2F1 mice (C57B1/6 x DBA/2). The inoculum level varies with the type of tumor: P388 leukemia is inoculated at 10^6 cells per mouse, L1210 leukemia at 10^5 or 10^6 cells per mouse, M5076 sarcoma at 5×10^6 cells per mouse. For implantation of the B16 melanoma lines and the colon carcinoma 26, s.c. tumors from donor mice are minced and homogenized in loose fitting teflon glass homogenizer to give a tumor brei. The inoculum levels are 0.5 ml of a 10 percent (w:v) brei of the B16 melanoma lines and 0.5 ml of a 5 percent (w:v) brei of colon carcinoma 26. After tumor inoculation, mice randomized to treatment groups comprised of 6-8 mice each. In each experiment, there are three groups of untreated control mice. Drugs are dissolved or suspended in appropriate aqueous vehicles and given by a variety of routes and schedules of administration over a range of dose levels. Animals are housed in shoebox cages and are monitored daily for mortality for 30 (L1210), 45 (P388) or 60 (B16, M5076, colon 26) days.
The test system of assay [4] is iv L1210 leukemia. To be noted: iv L1210 (10^6 cells).
Excerpt: Animals were inoculated iv with 10^6 cells. Increase in lifespan (ILS) is based on median survival time of groups of 6 mice relative to untreated controls.
The protocols utilized for the evaluation of the antitumor activity of Formula (I) compounds are well established and widely utilized by those skilled in the art of assessing the activity of drugs in preclinical tumor models. These studies generally follow the protocols established by the National Cancer Institute as described by Geran et al., Cancer Chemotherapy Reports, Part 3, Vol. 3, 1-103, 1972.
Tumors used in these studies P388 leukemia, L1210 leukemia and Lewis lung carcinoma--are maintained by serial transplantation in syngeneic strains of mice, DBA/2 for the leukemias and C57B1/6 for Lewis lung carcinoma. The leukemias are serially transplanted i.p. as ascites cell suspensions while the Lewis lung carcinoma is serially transplanted as a s.c. solid tumor.
For therapeutic trials, tumors were aseptically removed from donor mice and prepared as suspensions for implantation into test animals which for each tumor are syngeneic female F1 hybrid B6D2F1 mice (C57B1/6×DBA/2). The inoculum level varies with the type of tumor: P388 leukemia is inoculated at 10^6 cells per mouse, L1210 leukemia at 10^5 or 10^6 cells per mouse, and Lewis lung carcinoma at 0.25 ml of a 10 percent (w:v) brei. […] After tumor inoculation, mice are randomized to treatment groups of 6 to 8 mice each. In each experiment, there are three groups of untreated control mice.
Drugs are dissolved or suspended in appropriate aqueous vehicles and given i.p. or i.v. on various treatment schedules over a range of dosage levels. Animals are housed in shoebox cages and monitored daily for mortality for 30 (L1210), 45 (P388) or 60 (Lewis lung) days.
Setting [5] is: ip P388 (10^6 cells), 29 mg/kg, Days 1 & 5.

Where a name gives a salt, the structure may show the parent alone. Read-outs that look alike come from different tables or passages of the source.

As for `CO[C@@]12[C@H](COC(N)=O)C3=C(C(=O)C(C)=C(N)C3=O)N1C[C@@H]1N[C@@H]12` [Mitomycin C], the ILS (commonly how much longer treated animals lived than controls) in assay [1] (1.0 mg/kg) was found to be 14%; in assay [1] (1.6 mg/kg) it was 29%; in assay [1] (2.7 mg/kg), 54%; in assay [1] (4.5 mg/kg) it was 136%; in assay [1] (7.5 mg/kg), 104%; in assay [2] (1.0 mg/kg), 29%. The ILS was 48% in assay [2] (1.6 mg/kg); 52% in assay [2] (2.7 mg/kg); 62% in assay [2] (4.5 mg/kg); 52% in assay [2] (7.5 mg/kg); 83% in assay [3] (P388, 1.0 mg/kg, Days 1 and 5); 106% in assay [3] (P388, 1.6 mg/kg, Days 1 and 5). Further, the ILS is 128% in assay [3] (P388, 2.7 mg/kg, Days 1 and 5); 156% in assay [3] (P388, 4.5 mg/kg, Days 1 and 5); 178% in assay [3] (P388, 7.5 mg/kg, Days 1 and 5). For the same compound, the “NCK (net tumor cell kill)” value worked out at 0 log in assay [1] (1.0 mg/kg); 0 log in assay [1] (1.6 mg/kg); 1.8 log in assay [1] (2.7 mg/kg); 6.5 log in assay [1] (4.5 mg/kg); 5.5 log in assay [1] (7.5 mg/kg); 0 log in assay [2] (1.0 mg/kg). Besides, the “NCK (net tumor cell kill)” value is listed as 0.3 log in assay [2] (1.6 mg/kg); 0.5 log in assay [2] (2.7 mg/kg); 1.0 log in assay [2] (4.5 mg/kg); 0.5 log in assay [2] (7.5 mg/kg); 1.7 log in assay [3] (P388, 1.0 mg/kg, Days 1 and 5); 2.6 log in assay [3] (P388, 1.6 mg/kg, Days 1 and 5). Further, the “NCK (net tumor cell kill)” value in assay [3] (P388, 2.7 mg/kg, Days 1 and 5) is recorded as 3.5 log; in assay [3] (P388, 4.5 mg/kg, Days 1 and 5), 4.6 log; in assay [3] (P388, 7.5 mg/kg, Days 1 and 5), 5.5 log. For the same compound, the “sensitivity / resistance of subline” value in assay [2] (P388/doxorubicin in mice) is given as “resistant”.
For `CC[C@@]1(O)C(=O)OCc2c1cc1n(c2=O)Cc2cc3c(CN(C)C)c(O)ccc3nc2-1` [1S (hydrochloride salt)], the increase in life span (ILS) in assay [4] (3.2 mg/kg, Days 1 & 5, route ip in table head (iv)) was 50%; in assay [4] (5.4 mg/kg, Days 1 & 5, route ip in table head (iv), Monohydrochloride Salt), 92%; in assay [4] (9 mg/kg, Days 1 & 5, route ip in table head (iv), Monohydrochloride Salt), 125%; in assay [4] (15 mg/kg, Days 1 & 5, route ip in table head (iv in b213), Monohydrochloride Salt) it was 175%; in assay [4] (15 mg/kg, Days 1 & 5, route ip in table head (iv in b213), listed as hydrochloride, Monohydrochloride Salt), 175%; in assay [4] (25 mg/kg, Days 1 & 5, route ip in table head (iv)), “toxic”.
As to `CC[C@@]1(O)C(=O)OCc2c1cc1n(c2=O)Cc2cc3c(CN(C)C)c(O)ccc3nc2-1` [1S (dihydrochloride salt)], the increase in life span (ILS) turned out to be 50% in assay [4] (5.4 mg/kg, Days 1 & 5, route ip in table head (iv), Dihydrochloride Salt); 83% in assay [4] (9 mg/kg, Days 1 & 5, route ip in table head (iv), Dihydrochloride Salt); 133% in assay [4] (15 mg/kg, Days 1 & 5, route ip in table head (iv in b213), Dihydrochloride Salt); 133% in assay [4] (15 mg/kg, Days 1 & 5, route ip in table head (iv in b213), listed as dihydrochloride, Dihydrochloride Salt).
Take `CCC1(O)C(=O)OCc2c1cc1n(c2=O)Cc2cc3c(CN(C)C)c(O)ccc3nc2-1` (racemic) [Compound No. 1RS, (20 R,S)-9-Dimethylaminomethyl-10-hydroxycamptothecin Acetate Salt]: the ILS in assay [3] (ip P388 (10^6 cells), 3.6 mg/kg, Days 1 & 5) is reported as 30%; in assay [3] (ip P388 (10^6 cells), 7.2 mg/kg, Days 1 & 5), 80%; in assay [3] (ip P388 (10^6 cells), 14 mg/kg, Days 1 & 5), 135%; in assay [3] (setting [5]) it was 165%. Also, the “Long-term Survivors (tumor-free on Day 45)” value in assay [3] (setting [5]) is recorded as 1/6.
